Entries after “also recorded” stand apart in the source; their conditions may differ.
tested on: microorganisms; experiment: Targeting peptide binding to target microorganisms (Tables 3, 10, 12); conditions: peptide binding in aqueous buffers that varied with peptide solubility; preferably 1x PBS
Source text: In certain embodiments, the targeting moiety comprises one or more targeting peptides that bind particular bacteria, fungi, and/or yeasts, and/or algae, and/or viruses and/or that bind particular groups of bacteria, and/or groups of fungi, and/or groups of yeasts, and/or groups of algae.
In certain embodiments the targeting peptides include peptides comprising or consisting of one or more of the amino acid sequences shown in Table 3 (SEQ ID NOs:13-1566). In various embodiments the peptides include peptides comprising or consisting of the retro, inverso, retro-inverso, and/or beta form of one or more of the amino acid sequences shown in Table 3. Also contemplated are circular permutations of these sequences as well as peptides comprising or consisting of the retro, inverso, retro-inverso, and/or beta form of such circular permutations.
In certain embodiments the targeting peptide can comprise one or more domains capable of binding, specifically binding, or preferentially binding to a microorganism, e.g., a target microbial organism (see, e.g., Table 3). In certain embodiment, the targeting peptide be identified via screening peptide libraries. For example, a phage display peptide library can be screened against a target microbial organism or a desired antigen or epitope thereof. Any peptide identified through such screening can be used as a targeting peptide for the target microbial organism.

Substance | Target(s) (microorganism bound by the targeting peptide)
1T-38 (VMFVLTRGRSPRPMIPAY; Peptide with targeting and/or antimicrobial activity) | S. mutans; also recorded: S. aereus; also recorded: S. epidermidis; also recorded: C. jeikeium; also recorded: C. xerosis; also recorded: C. striatum; also recorded: P. aeruginosa
1T-39 (FGFCVWMYQLLAGPPGPPA; Peptide with targeting and/or antimicrobial activity) | S. mutans; also recorded: P. aeruginosa
1T-40 (QRVSLWSEVEHEFR; Peptide with targeting and/or antimicrobial activity) | S. mutans; also recorded: P. aeruginosa
1T-41 (KRGSKIVIAIAVVLIVLAGVWVW; Peptide with targeting and/or antimicrobial activity) | S. mutans; also recorded: S. aureus; also recorded: S. epidermidis; also recorded: C. jeikeium; also recorded: C. striatum; also recorded: P. aeruginosa
1T-42 (TVLDWLSLALATGLFVYLLVALLRADRA; Peptide with targeting and/or antimicrobial activity) | S. aureus; also recorded: S. epidermidis; also recorded: C. xerosis; also recorded: C. striatum; also recorded: P. aeruginosa
1T-43 (DRCLSVLSWSPPKVSPLI; Peptide with targeting and/or antimicrobial activity) | C. jeikium; also recorded: P. aeruginosa
1T-44 (DPALADFAAGMRAQVRT; Peptide with targeting and/or antimicrobial activity) | S. mutans; also recorded: S. aureus; also recorded: S. epidermidis; also recorded: C. jeikeium; also recorded: C. striatum; also recorded: P. aeruginosa
1T-45 (WTKPSFTDLRLGFEVTLYFANR; Peptide with targeting and/or antimicrobial activity) | S. aureus; also recorded: S. epidermidis; also recorded: C. striatum; also recorded: P. aeruginosa
1T-46 (FSFKQRVMFRKEVERLR; Peptide with targeting and/or antimicrobial activity) | S. aureus; also recorded: S. epidermidis; also recorded: C. jeikeium; also recorded: C. xerosis; also recorded: C. striatum; also recorded: P. aeruginosa
1T-47 (VIKISVPGQVQMLIP; Peptide with targeting and/or antimicrobial activity) | S. mutans; also recorded: S. epidermidis; also recorded: P. aeruginosa
1T-48 (KLQVHHGRATHTLLLQPPLCAPGTIR; Peptide with targeting and/or antimicrobial activity) | S. aureus; also recorded: S. epidermidis; also recorded: C. jeikeium; also recorded: C. xerosis; also recorded: C. striatum; also recorded: P. aeruginosa
1T-49 (SLVRIHDQQPWVTRGAFIDAARTCS; Peptide with targeting and/or antimicrobial activity) | S. aureus; also recorded: S. epidermidis; also recorded: C. jeikeium; also recorded: P. aeruginosa
1T-50 (HSDEPIPNILFKSDSVH; Peptide with targeting and/or antimicrobial activity) | P. aeruginosa
1T-51 (GKPKRMPAEFIDGYGQALLAGA; Peptide with targeting and/or antimicrobial activity) | S. aureus; also recorded: P. aeruginosa
1T-52 (DEYPAKLPLSDKGATEPRRH; Peptide with targeting and/or antimicrobial activity) | S. aureus; also recorded: C. xerosis; also recorded: P. aeruginosa
1T-53 (SDILAEMFEKGELQTLVKDAAAKANA; Peptide with targeting and/or antimicrobial activity) | P. aeruginosa
1T-54 (RWVSCNPSWRIQ; Peptide with targeting and/or antimicrobial activity) | S. epidermidis; also recorded: C. xerosis; also recorded: C. striatum; also recorded: P. aeruginosa
1T-55 (NHKTLKEWKAKWGPEAVESWATLLG; Peptide with targeting and/or antimicrobial activity) | C. xerosis; also recorded: P. aeruginosa
1T-56 (LALIGAGIWMIRKG; Peptide with targeting and/or antimicrobial activity) | C. xerosis; also recorded: P. aeruginosa
1T-57 (RLEYRRLETQVEENPESGRRPMRG; Peptide with targeting and/or antimicrobial activity) | P. aeruginosa

Substance | Target(s) (microorganism bound by the targeting peptide)
1T-58 (CDDLHALERAGKLDALLSA; Peptide with targeting and/or antimicrobial activity) | P. aeruginosa
1T-59 (AVGNNLGKDNDSGHRGKKHRKHKHR; Peptide with targeting and/or antimicrobial activity) | S. aureus; also recorded: S. epidermidis; also recorded: P. aeruginosa
1T-60 (YLTSLGLDAAEQAQGLLTILKG; Peptide with targeting and/or antimicrobial activity) | S. aureus; also recorded: S. epidermidis; also recorded: C. jeikeium; also recorded: C. striatum; also recorded: P. aeruginosa
1T-61 (HATLLPAVREAISRQLLPALVPRG; Peptide with targeting and/or antimicrobial activity) | P. aeruginosa
1T-62 (GCKGCAQRDPCAEPEPYFRLR; Peptide with targeting and/or antimicrobial activity) | S. epidermidis; also recorded: P. aeruginosa
1T-63 (EPLILKELVRNLFLFCYARALR; Peptide with targeting and/or antimicrobial activity) | S. aureus; also recorded: S. epidermidis; also recorded: C. jeikeium; also recorded: C. xerosis; also recorded: C. striatum; also recorded: P. aeruginosa
1T-64 (QTVHHIHMHVLGQRQMHWPPG; Peptide with targeting and/or antimicrobial activity) | S. aureus; also recorded: S. epidermidis; also recorded: C. jeikeium; also recorded: C. xerosis; also recorded: C. striatum; also recorded: P. aeruginosa
1T-65 (HARAAVGVAELPRGAAVEVELIAAVRP; Peptide with targeting and/or antimicrobial activity) | S. mutans; also recorded: S. aureus; also recorded: S. epidermidis; also recorded: C. jeikeium; also recorded: C. xerosis; also recorded: C. striatum; also recorded: P. aeruginosa
1T-66 (DTDCLSRAYAQRIDELDKQYAGIDKPL; Peptide with targeting and/or antimicrobial activity) | S. mutans; also recorded: S. aureus; also recorded: S. epidermidis; also recorded: C. jeikeium; also recorded: C. xerosis; also recorded: C. striatum; also recorded: P. aeruginosa
1T-67 (GQRQRLTCGRVSGCSEGPSREAAR; Peptide with targeting and/or antimicrobial activity) | S. aureus; also recorded: S. epidermidis; also recorded: C. jeikeium; also recorded: C. xerosis; also recorded: C. striatum; also recorded: P. aeruginosa
1T-68 (GGTKEIVYQRG; Peptide with targeting and/or antimicrobial activity) | S. mutans; also recorded: S. aureus; also recorded: C. jeikeium; also recorded: C. xerosis; also recorded: C. striatum; also recorded: P. aeruginosa
1T-69 (ILSQEADRKKLF; Peptide with targeting and/or antimicrobial activity) | S. mutans; also recorded: P. aeruginosa
1T-70 (NRQAQGERAHGEQQG; Peptide with targeting and/or antimicrobial activity) | S. aureus; also recorded: C. jeikeium; also recorded: P. aeruginosa
1T-71 (KIDTNQWPPNKEG; Peptide with targeting and/or antimicrobial activity) | P. aeruginosa
1T-72 (EPTDGVACKER; Peptide with targeting and/or antimicrobial activity) | P. aeruginosa
1T-73 (GWWEELLHETILSKFKITKALELPIQL; Peptide with targeting and/or antimicrobial activity) | S. pneumoniae
1T-74 (DIDWGRKISCAAGVAYGAIDGCATTV; Peptide with targeting and/or antimicrobial activity) | S. pneumoniae
1T-75 (GVARGLQLGIKTRTQWGAATGAA; Peptide with targeting and/or antimicrobial activity) | S. pneumoniae
1T-76 (EMRLSKFFRDFILWRKK; Peptide with targeting and/or antimicrobial activity) | S. pneumoniae
1T-77 (EMRISRIILDFLFLRKK; Peptide with targeting and/or antimicrobial activity) | S. pneumoniae

Source: patent US20110039763A1, “TARGETED ANTIMICROBIAL MOIETIES” (C3 JIAN, INC., priority 2009, published 2011)
